# Assay results from PMC10783051 (Microbiology Spectrum, 2023).
# System: Streptomyces venezuelae ATCC 10712
# Test: Confrontation assay B. velezensis GA1 / S. venezuelae on REM plate, UPLC-MS metabolite profiling of the agar
# Settings: gelified REM, 3 days at 26°C
# Procedure: Confrontation assays were performed on square Petri dishes (12 × 12 cm) with 40 mL of REM solid medium at 26°C (REM supplemented with 14 g/L of agar).
# S. venezuelae ATCC 10712 was inoculated as stripes (1 × 12 cm) in the middle of the plate with 40 µL of spore suspension (10^7 spores/mL) and spread with a cotton swab. Next, B. velezensis GA1 cells were collected from fresh precultures as described and adjusted to OD600 nm 0.1. Then, 5 µL of B. velezensis GA1 suspension was spotted at 1 cm of the Streptomyces line. Control plates were done following the same procedure without the inoculation of either Bacillus or Streptomyces. Plates were then incubated for 3 days at 26°C in the dark. Pictures of the plates were then captured using a CoolPix camera (NIKKOR ×60 wide optical zoom extra-low dispersion vibration reduction 4.3–258.0 mm 1:33 to 6.5).
# The extraction of the metabolites from the agar was performed as follows. For the confrontation experiment, we precisely sampled the area of agar (2 × 1 cm) near the colony of Bacillus or Streptomyces (the confrontation zone is 1 cm wide) with standardized plugs. For the in planta, we sampled the agar area (1 × 1 cm) near the tomato roots. In both cases, the agar samples were transferred to Eppendorf tubes and placed for 24 h at −20°C. Then, the agar was thawed at room temperature and centrifuged for 10 min at 13,000 rpm. The supernatants were then collected and filtered (0.22-µm pore size filters) before UPLC-MS analysis.
# All UPLC-MS analyses were performed using an Agilent 1290 Infinity II coupled with a diode array detector and a mass detector (Jet Stream ESI-Q-TOF 6530) in positive mode with the parameters set up as follows: capillary voltage of 3.5 kV, nebulizer pressure of 35 lb/in^2, drying gas of 8 L/min, drying gas temperature of 300°C, flow rate of sheath gas of 11 L/min, sheath gas temperature of 350°C, fragmentor voltage of 175 V, skimmer voltage of 65 V, and octopole radiofrequency of 750 V. Accurate mass spectra were recorded in the m/z range of 300–1,700. For untargeted MS/MS, we used the same MS1 parameters as described. We added MS2 untargeted acquisition mode with the parameters as follows: MS/MS range 50–1,700 m/z; MS/MS scan rate 3 spectra/s; isolation width MS/MS medium (approx. 4 AMU), Decision Engine Native; fixed collision energies of 25 and 40 V for surfactin, 50 V for iturin, and 60 V for fengycin experiments; precursor selection: three for the surfactin experiment, four for the iturin and fengycin experiments, threshold 1,500 (Abs), isotope model common, active exclusion after two spectra and release after 0.5 min, sorting the precursors by charge state then abundance (charge state preference 1). For targeted MS/MS, we used the same MS1 parameters MS/MS range of 50–1,700 m/z or 50–3,200 (when required for Pseudomonas CLPs with mass >1,700 Da), MS/MS scan rate 3 spectra/s, isolation width MS/MS narrow (approx. 1.3 amu), and fixed collision energies 20, 40, and 60V. In all experiments, a C18 Acquity UPLC ethylene bridged hybrid column (2.1 mm × 50 mm × 1.7 µm; Waters Corporation, Milford, MA, USA) was used at a flow rate of 0.6 mL/min and a temperature of 40°C. The injection volume was 20 µL, and the diode array detector scanned a wavelength spectrum between 190 and 600 nm. Unless otherwise mentioned, a gradient of acidified water (0.1% formic acid) (solvent A) and of acidified acetonitrile (0.1% formic acid) (solvent B) was used as mobile phase with a constant flow rate of 0.6 mL/min, starting at 10% B and rising to 100% B in 20 min. Solvent B was kept at 100% for 4 min before going back to the initial ratio. MassHunter Workstation (version 10.0) and ChemStation software were used for data collection and analysis. For untargeted analysis of iturin and fengycin degradation products, we used the same solvent and flow rate, starting at 10% B to 20% in 2 min, then rising to 50% B at 14 min and 100% B at 25 min, followed by 100% B and 5 at 10% B at 6 min.
substance,measurement,setting,value
iturin,shorter CLP fragment detected in the confrontation zone but not in Bv monoculture,"UPLC-MS, MS/MS",loss of asparagine in position 3
same,abundance of the CLP in the confrontation zone compared with monocultures,"agar extract of confrontation zone, UPLC-Q-TOF-MS peak areas, three biological replicates",decrease in the abundance
